Assay [1] deals with T1, 5-lipoxygenase (LO) (Homo sapiens, UniProt P09917).
T1 construct: The leukocytes were homogenised and 5 μM arachidonic acid added; endogenous in cells; host or cells: homogenate of leukocytes from blood of normal aspirin-free volunteers
T1 sequence (P09917 1-674): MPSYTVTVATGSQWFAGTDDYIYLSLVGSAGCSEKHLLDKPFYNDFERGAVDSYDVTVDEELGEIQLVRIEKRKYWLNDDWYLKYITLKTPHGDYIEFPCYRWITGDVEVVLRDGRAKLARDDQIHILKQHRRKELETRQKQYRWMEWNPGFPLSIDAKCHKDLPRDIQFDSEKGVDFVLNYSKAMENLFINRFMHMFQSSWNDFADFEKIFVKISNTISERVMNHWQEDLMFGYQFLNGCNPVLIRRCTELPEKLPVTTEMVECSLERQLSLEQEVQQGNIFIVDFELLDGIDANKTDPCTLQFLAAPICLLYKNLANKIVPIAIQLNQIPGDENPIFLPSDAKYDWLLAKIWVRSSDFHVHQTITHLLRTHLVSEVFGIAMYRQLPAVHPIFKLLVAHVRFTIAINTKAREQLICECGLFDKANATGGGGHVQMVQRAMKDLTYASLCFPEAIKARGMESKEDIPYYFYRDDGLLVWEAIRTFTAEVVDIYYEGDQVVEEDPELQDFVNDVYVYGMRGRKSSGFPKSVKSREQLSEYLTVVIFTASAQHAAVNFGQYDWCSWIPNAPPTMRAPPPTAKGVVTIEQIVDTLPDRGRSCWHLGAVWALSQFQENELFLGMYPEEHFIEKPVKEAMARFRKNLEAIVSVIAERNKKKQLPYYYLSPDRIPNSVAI
In words: In vitro inhibition of 5-lipoxygenase (LO); leukocyte homogenate with arachidonic acid, radioimmunoassay for leukotriene B4. The conditions noted are these: homogenised leukocytes from aspirin-free volunteers, 5 μM arachidonic acid, 37°, 5 minutes; leukotriene B4 (LO product). The assay is classed as biochemical. As for the experimental part: (§1) In vitro inhibition of 5-lipoxygenase (LO) and Cyclooxygenase (CO)
(§2) Blood from normal aspirin-free volunteers was centrifuged to separate leukocytes from red cells and platelets. The leukocytes were homogenised and 5 μM arachidonic acid added, followed by incubation at 37° for 5 minutes. The reaction was stopped by boiling. Radioimmunassay was conducted for leukotriene B4 (an LO product) and thomboxane B4 (a CO product). Results were calculated as IC50 μM activity against each enzyme and as listed below.

The target of assay [2] is T2, Cyclooxygenase (CO) (Homo sapiens, UniProt P23219).
T2 construct: The leukocytes were homogenised and 5 μM arachidonic acid added; endogenous in cells; host or cells: homogenate of leukocytes from blood of normal aspirin-free volunteers
Briefly: In vitro inhibition of Cyclooxygenase (CO); leukocyte homogenate with arachidonic acid, radioimmunoassay for thromboxane. To be noted: homogenised leukocytes from aspirin-free volunteers, 5 μM arachidonic acid, 37°, 5 minutes; thomboxane B4 (CO product). It is filed as biochemical. The protocol: as §1, §2

The text below walks through data of US5036157A, “Aryl derivatives” (Burroughs Wellcome Co., priority 1987, dated 1991).

Structures are written as SMILES. pIC50: −log10 of the molar value. A value given as a limit tells only on which side of the number the result lay.

T2 sequence (P23219 24-599): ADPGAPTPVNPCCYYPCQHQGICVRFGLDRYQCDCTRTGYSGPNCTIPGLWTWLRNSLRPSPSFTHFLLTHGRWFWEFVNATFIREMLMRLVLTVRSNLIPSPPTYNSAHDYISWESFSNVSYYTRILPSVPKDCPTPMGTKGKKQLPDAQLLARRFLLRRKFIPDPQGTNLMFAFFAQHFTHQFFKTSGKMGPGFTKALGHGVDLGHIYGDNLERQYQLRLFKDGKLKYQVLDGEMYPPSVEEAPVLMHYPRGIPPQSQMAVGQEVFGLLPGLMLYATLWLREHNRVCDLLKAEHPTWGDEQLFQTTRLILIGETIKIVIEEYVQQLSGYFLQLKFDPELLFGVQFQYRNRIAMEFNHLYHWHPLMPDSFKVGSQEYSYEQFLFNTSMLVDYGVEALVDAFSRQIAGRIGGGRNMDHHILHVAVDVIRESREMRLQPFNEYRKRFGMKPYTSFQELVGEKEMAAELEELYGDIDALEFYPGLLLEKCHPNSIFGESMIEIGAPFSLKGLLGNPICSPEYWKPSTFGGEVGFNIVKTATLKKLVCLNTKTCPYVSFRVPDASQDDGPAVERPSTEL

In the case of `CN(O)C(=O)C=Cc1cccc(Oc2ccccc2)c1` [Example 1, 3-Phenoxy-N-methylcinnamohydroxamic Acid], the pIC50 in assay [1] is over 7.00; in assay [2], 5.52.

One may read the pIC50 as the negative decadic logarithm of the IC50, by convention in mol/L. Read a low pIC50 as a large IC50.
